Here are results for 12 compounds from patent US5622948A, “Pyrrole pyridazine and pyridazinone anti-inflammatory agents” (Syntex (U.S.A.) Inc., priority 1994, dated 1997).

Series [1] in a line: physical stability / phase transformation of crystal forms of Compound (16). The class given is physicochemical. The settings on record: for conversion when suspended in alcohol or ethyl acetate: suspended in alcohol (Phase II: alcohol or ethyl acetate). From the text:
Phase I was obtained when Compound (16) was recrystallized from methanol, ethanol, ethanol/acetic acid, acetone, ethyl acetate, ethyl acetate/acetic acid, dichloromethane, tetrahydrofuran or tetrahydrofuran/ethyl acetate.
Phase II was obtained when Compound (16) was recrystallized from toluene.
Phase III was obtained by rapid precipitation of Compound (16) from acetic acid/water.
Hydrate I, a monohydrate, was also obtained by slow recrystallization of Compound (16) from acetic acid/water.

In series [2] the target is T1, COX II (Homo sapiens, UniProt P35354).
T1 sequence (P35354 18-604): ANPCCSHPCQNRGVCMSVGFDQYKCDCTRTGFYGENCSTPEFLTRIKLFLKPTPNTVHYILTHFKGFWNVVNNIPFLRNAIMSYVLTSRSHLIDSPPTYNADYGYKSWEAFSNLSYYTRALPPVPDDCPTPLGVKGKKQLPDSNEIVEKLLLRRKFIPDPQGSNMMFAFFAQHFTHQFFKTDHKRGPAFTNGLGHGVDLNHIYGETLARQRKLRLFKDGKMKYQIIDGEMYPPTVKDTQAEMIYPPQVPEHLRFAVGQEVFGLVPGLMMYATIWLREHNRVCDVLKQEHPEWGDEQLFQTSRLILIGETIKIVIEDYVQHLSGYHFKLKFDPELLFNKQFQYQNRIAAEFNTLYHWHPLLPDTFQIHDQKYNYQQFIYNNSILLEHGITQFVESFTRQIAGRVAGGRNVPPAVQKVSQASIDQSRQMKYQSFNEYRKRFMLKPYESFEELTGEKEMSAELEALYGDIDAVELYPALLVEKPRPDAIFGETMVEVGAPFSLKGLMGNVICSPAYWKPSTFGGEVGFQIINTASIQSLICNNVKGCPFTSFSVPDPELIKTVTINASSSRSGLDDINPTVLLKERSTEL
In words: radiometric assay, COX II inhibition (human recombinant, baculovirus expressed, partially purified). The class given is biochemical. Also on record: A 1.8 Kb DNA fragment containing the coding region of human COX II was generated by PCR; made in house; host or cells: Sf9 insect cells, baculovirus. Conditions: radiometric assay, human recombinant baculovirus expressed enzyme; read-out: COX II IC50 (Table 2). The protocol: (§1) Human prostaglandin G/H synthase I and II ("COX I" and "COX II") were expressed in the baculovirus expression system and purified to high levels.
(§2) As described above, human recombinant COX I and COX II were cloned and expressed in a baculovirus system. Partially purified COX I and COX II enzymes were used for screening compounds for their ability to inhibit COX I and COX II activity, as described below.
(§3) Compound (16), in 2 μl DMSO, and control samples (carrier vehicles only) were mixed with COX I or COX II samples (e.g. fractions from the chromatography columns) in polypropylene tubes and preincubated with 2 mM phenol for 5 minutes and then with 1 μM hematin for an additional 5 minutes. The 150 μl reaction mixture consisted of 50 mM Tris --HCl, pH 7.9, 2 mM EDTA, 10% glycerol, 200 μM phenol, 1 μM hematin, 1-25 μl sample and 20 μM 1-[^14 C] arachidonate (80.000-100.000 cpm/tube). After 45 seconds at room temperature, the reaction was terminated by adding 200 μl of 2N HCl and 750 μl water. An aliquot (950 μl) of the reaction mixture was loaded onto a 1 ml C~ Sep-Pak (J. T. Baker, Phillipsburg, N.J.) which had been previously washed with 2-3 ml methanol and equilibrated with 5-6 ml distilled water. Oxygenated products were quantitatively eluted with 3 ml of acetonitrile, H2 O and acetic acid (50:50:0.1, v/v) and the radioactivity in the eluate determined in a scintillation counter.
(§4) Human recombinant 10 min incubation with Compound (16)
(§5) baculovirus 45 sec incubation with 20 μM AA
(§6) partially purified Separation of radioactive products

For series [3], the target named is COX I (Homo sapiens, UniProt P23219). The series can be described thus: radiometric assay, COX I inhibition (human recombinant, baculovirus expressed, partially purified). Type of series: biochemical. The arrangement: A 2 Kb fragment containing the coding region of COX I; made in house; host or cells: Sf9 insect cells, baculovirus (cDNA from Oxford Biomedical Research). The settings on record: radiometric assay, human recombinant baculovirus expressed enzyme; read-out: COX I IC50 (Table 2). On the procedure:
as §1, §2, §3, §4, §5, §6

Series [4] has as its system stomach PGE2. The class given is in vivo, rat. Conditions: 2-5 mg/kg. The protocol:
To examine the effect of Compound (16) on prostaglandin (PG) synthesis in inflamed tissues, Compound (16) was tested in a carrageenan-induced inflammation (air-pouch model) in rats. PGE2 levels in the air-pouch exudate were measured by enzyme immunoassay in rats treated with 0.1-30 mg/kg of Compound (16). […] […].
To test the effects of Compound (16) on PG synthesis in non-inflamed tissue, PGE2 levels were measured in the stomach of rats from the above experiments. […]

The test system of series [5] is PGE2 levels in the air-pouch exudate. In words: PGE2 in exudate of carrageenan-induced inflammation (air-pouch model) in rats. The class given is in vivo, rat. Conditions: 2-5 mg/kg.
The test system of series [6] is stomach and intestines. Conditions: general statement (background); cited from earlier work.
For series [7], the system named is adjuvant-induced arthritis. The series can be described thus: adjuvant-induced arthritis in the rat. Conditions: second test. Type of series: in vivo.

Chain of COX I (P23219 24-599): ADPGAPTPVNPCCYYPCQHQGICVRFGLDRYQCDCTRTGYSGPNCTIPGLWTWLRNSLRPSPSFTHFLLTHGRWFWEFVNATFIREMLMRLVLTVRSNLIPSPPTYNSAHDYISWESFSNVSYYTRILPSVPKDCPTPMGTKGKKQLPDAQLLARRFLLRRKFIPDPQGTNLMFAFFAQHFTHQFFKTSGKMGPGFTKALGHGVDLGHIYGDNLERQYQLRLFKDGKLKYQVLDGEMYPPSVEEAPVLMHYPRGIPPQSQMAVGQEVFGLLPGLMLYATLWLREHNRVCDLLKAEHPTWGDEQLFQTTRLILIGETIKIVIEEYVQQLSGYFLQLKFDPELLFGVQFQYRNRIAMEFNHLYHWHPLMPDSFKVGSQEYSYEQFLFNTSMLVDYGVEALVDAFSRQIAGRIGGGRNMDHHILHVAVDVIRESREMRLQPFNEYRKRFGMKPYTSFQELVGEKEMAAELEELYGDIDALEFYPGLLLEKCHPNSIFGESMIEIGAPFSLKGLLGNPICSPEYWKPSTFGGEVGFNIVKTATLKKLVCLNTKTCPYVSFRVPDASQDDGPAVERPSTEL

Turning to `Cc1cc(Cc2ccc(=O)[nH]n2)n(C)c1C(=O)c1ccc(Cl)cc1` [Phase II], in series [1], the “conversion when suspended in alcohol or ethyl acetate” value is reported as “converted to Phase I” and the “conversion when suspended in water” value is listed as “converted to another hydrate, Hydrate II”.

With `Cc1cc(Cc2ccc(=O)[nH]n2)n(C)c1C(=O)c1ccc(Cl)cc1` [Hydrate I], the “physical stability, duration” value in series [1] (40° C./75% relative humidity) came to 14 days. Besides, the physical stability result in series [1] (40° C./ambient relative humidity, within 11-95% relative humidity) is “physically stable”. Moreover, in series [1] (120° C.), the “conversion on heating at 120° C.” value is recorded as “phase conversion to another anhydrous crystal form”. Besides, in series [1] (below 100° C., ambient conditions and 23% relative humidity), the “dehydration at temperatures below 100° C.” value was “produced a metastable form that converted back to Hydrate I”. Moreover, the “conversion when suspended in alcohol or ethyl acetate” value in series [1] was “can be converted back to Phase I”.

In the case of `Cc1cc(Cc2ccc(=O)[nH]n2)n(C)c1C(=O)c1ccc(Cl)cc1` [Phase I], the “phase transformation on milling and micronization” value in series [1] (milling and micronization) is reported as “did not cause any phase transformation”. The “conversion when suspended in water” value in series [1] is “converted to a monohydrate, Hydrate I”. Besides, the “physically stable for” value in series [1] (unmilled (-200 μm), 40° C./75% relative humidity) is listed as “at least 4 days”.

As usually defined, the IC50 is the point on the concentration scale where inhibition reaches its midpoint. Consider `Cc1ccc(C(=O)c2ccc(C(C)c3ccc(=O)[nH]n3)n2C)cc1` (stereo not shown) [Compound 95, 6-{1-[1-methyl-5-(4-methyl-benzoyl)-1H-pyrrol-2-yl]-ethyl}-2H-pyridazin-3-one], for which the IC50 in series [2] amounted to 1.3 µM; in series [3] it was 140 µM.

As for `Cc1ccc(C(=O)c2c(Cl)cc(Cc3ccc(=O)[nH]n3)n2C)cc1` [Compound 80, 6-[4-chloro-1-methyl-5-(4-methyl-benzoyl)-1H-pyrrol-2-ylmethyl]-2H-pyridazin-3-one], the IC50 is 0.7 µM in series [2] and at least 1000 µM in series [3].

Take `Cc1cc(Cc2ccc(=O)[nH]n2)n(C)c1C(=O)c1ccc(Cl)cc1` [Phase III]: in series [1], the “conversion when suspended in alcohol or ethyl acetate” value is reported as “converted to Phase I” and the “conversion when suspended in water” value is “converted to Hydrate I”.

Regarding `COc1ccc2c(c1)c(CC(=O)O)c(C)n2C(=O)c1ccc(Cl)cc1` [indomethacin, reference compound], the “inhibition of stomach PGE2” value in series [4] is above 80%. The “inhibition of PGE2 in the exudates” value in series [5] is recorded as above 70%. Besides, the “corrosiveness to the stomach and intestines of rats” value in series [6] is “highly corrosive to the stomach and intestines of rats”. For the same compound, the “inhibition of adjuvant-induced arthritis” value is 66% in series [7] (0.3 mg/kg/day) and 79% in series [7] (0.6 mg/kg/day).

For `Cc1cc(C(C)c2ccc(=O)[nH]n2)n(C)c1C(=O)c1ccc(Cl)cc1` (stereo not shown) [Compound 18, 6-{1-[5-(4-chloro-benzoyl)-1,4-dimethyl-1H-pyrrol-2-yl]-ethyl}-2H-pyridazin-3-one], the IC50 in series [2] turned out to be 1.5 µM; in series [3] it was 15 µM.

For `CC(=O)OCn1nc(Cc2cc(C)c(C(=O)c3ccc(Cl)cc3)n2C)ccc1=O` [Compound 161, acetic acid 2-{3-[5-(4-chloro-benzoyl)-1,4,-dimethyl-1H-pyrrol-2-ylmethyl]-6-oxo-6H-pyridazin-1-yl}-methyl ester], the values for the IC50 in series [2] and in series [3] were 0.61 µM and 64.7 µM, respectively.

With `Cc1cc(Cc2ccc(=O)n(CC#N)n2)n(C)c1C(=O)c1ccc(Cl)cc1` [Compound 122, 6-[5-(4-chloro-benzoyl)-1,4,-dimethyl-1H-pyrrol-2-ylmethyl]-2-(cyano-methyl)-2H-pyridazin-3-one], the IC50 worked out at 0.063 µM in series [2] and 0.074 µM in series [3].

In the case of `Cc1cc(Cc2ccc(=O)[nH]n2)n(C)c1C(=O)c1ccc(Br)cc1` [Compound 35, 6-[5-(4-bromo-benzoyl)-1,4-dimethyl-1H-pyrrol-2-ylmethyl]-2H-pyridazin-3-one], the IC50 in series [2] turned out to be 0.1 µM; in series [3], 86 µM.

`CC(=O)OCCn1nc(Cc2cc(C)c(C(=O)c3ccc(Cl)cc3)n2C)ccc1=O` [Compound 135, acetic acid 2-{3-[5-(4-chloro-benzoyl)-1,4,-dimethyl-1H-pyrrol-2-ylmethyl]-6-oxo-6H-pyridazin-1-yl}ethyl ester]: the IC50 in series [2] was determined as 0.35 µM; in series [3], 52 µM.
